US6737383B1, “Herbicidal oxadiazolidines” (priority 1999, dated 2004)

Columns and labels:
bedstraw = test: Test B pre/postemergence bedstraw; type: in vivo, Galium aparine
Procedure, shortened: (§1)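 Response is a visual 0-to-10 score relative to untreated plants, where 0 means no effect and 10 means complete control, taken twelve to sixteen days after application. Treatments went onto soil at planting and onto foliage of 1- to 4-leaf plants, using a surfactant-containing non-phytotoxic solvent.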

blackgrass = test: Test B pre/postemergence blackgrass; type: in vivo, Alopecurus myosuroides
Procedure, shortened: as §1

surinam grass = test: Test B pre/postemergence surinam grass; type: in vivo, Brachiaria decumbens
Procedure, shortened: as §1

corn = test: Test B pre/postemergence corn; type: in vivo, Zea mays
Procedure, shortened: as §1

crabgrass = test: Test B pre/postemergence crabgrass; type: in vivo, Digitaria sanguinalis
Procedure, shortened: as §1

giant foxtail = test: Test B pre/postemergence giant foxtail; type: in vivo, Setaria faberii
Procedure, shortened: as §1

morningglory = test: Test B pre/postemergence morningglory; type: in vivo, Ipomoea hederacea
Procedure, shortened: as §1

pigweed = test: Test B pre/postemergence pigweed; type: in vivo, Amaranthus retroflexus
Procedure, shortened: as §1

rape = test: Test B pre/postemergence rape; type: in vivo, Brassica napus
Procedure, shortened: as §1

soybean = test: Test B pre/postemergence soybean; type: in vivo, Glycine max
Procedure, shortened: as §1

velvetleaf = test: Test B pre/postemergence velvetleaf; type: in vivo, Abutilon theophrasti
Procedure, shortened: as §1

wheat = test: Test B pre/postemergence wheat; type: in vivo, Triticum aestivum
Procedure, shortened: as §1

wild oat = test: Test B pre/postemergence wild oat; type: in vivo, Avena fatua
Procedure, shortened: as §1

purple nutsedge = test: Test B pre/postemergence purple nutsedge; type: in vivo, Cyperus rotundus
Procedure, shortened: as §1

rice = test: Test B flood test rice; type: in vivo, Oryza sativa
Procedure, shortened: (§2)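 Flood test on plants grown to the 2-leaf stage; treated plants kept in greenhouse twelve to sixteen days, then visually rated against controls on a 0 (no effect) to 10 (complete control) scale.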

duck salad = test: Test B flood test duck salad; type: in vivo, Heteranthera limosa
Procedure, shortened: as §2

[1] = Preemergence, Rate 62 g/ha, scale of 0 to 10 where 0 is no effect and 10 is complete control
[2] = Preemergence, Rate 250 g/ha, scale of 0 to 10 where 0 is no effect and 10 is complete control
[3] = Preemergence, Rate 500 g/ha, scale of 0 to 10 where 0 is no effect and 10 is complete control
[4] = Rate 62 g/ha, Postemergence, scale of 0 to 10 where 0 is no effect and 10 is complete control
[5] = Rate 125 g/ha, Postemergence, scale 0 to 10
[6] = Rate 125 g/ha, Preemergence, scale of 0 to 10 where 0 is no effect and 10 is complete control
[7] = Rate 500 g/ha, Postemergence, scale 0 to 10, 0 no effect, 10 complete control
[8] = Rate 62 g/ha, headed Pre-emergence (flood test species), scale 0 to 10 (0 no effect, 10 complete control)
[9] = Rate 125 g/ha, Pre-emergence, flood test species, scale 0 to 10 where 0 is no effect and 10 is complete control
[10] = Rate 250 g/ha, Pre-emergence, flood-test species, scale 0 to 10, 0 is no effect, 10 is complete control
[11] = Rate 500 g/ha, Pre-emergence, flood test species, scale 0 to 10 (0 no effect, 10 complete control)

Structure (SMILES): CC(C)N(C(=O)n1oc(=O)n(-c2cccnc2)c1=O)c1ccc(F)cc1 [Compound 234]
- Bedstraw plant response rating (bedstraw; [1]): 0
- Bedstraw plant response rating (bedstraw; [2]): 0
- Plant response rating, Bedstraw (bedstraw; [3]): 0
- Bedstraw plant response rating (bedstraw; [4]): 0
- Bedstraw plant response rating (bedstraw; [5]): 0
- Bedstraw plant response rating (bedstraw; [6]): 0
- Plant response rating (0 to 10; 0 is no effect, 10 is complete control), Bedstraw (bedstraw; Rate 250 g/ha, Postemergence): 0
- Bedstraw plant response rating (bedstraw; [7]): 0
- Blackgrass plant response rating (blackgrass; [1]): 0
- Blackgrass plant response rating (blackgrass; [2]): 0
- Plant response rating, Blackgrass (blackgrass; [3]): 0
- Blackgrass plant response rating (blackgrass; [4]): 0
- Blackgrass plant response rating (blackgrass; [5]): 0
- Blackgrass plant response rating (blackgrass; [6]): 0
- Plant response rating (0 to 10; 0 is no effect, 10 is complete control), Blackgrass (blackgrass; Rate 250 g/ha, Postemergence): 0
- Blackgrass plant response rating (blackgrass; [7]): 0
- B. signalgrass plant response rating (surinam grass; [1]): 0
- B. signalgrass plant response rating (surinam grass; Preemergence, Rate 250 g/ha, scale 0 to 10, 0 is no effect, 10 is complete control): 0
- Plant response rating, B. signalgrass (surinam grass; [3]): 0
- B. signalgrass plant response rating (surinam grass; [4]): 0
- B. signalgrass plant response rating (surinam grass; Rate 125 g/ha, Postemergence, scale 0 (no effect) to 10 (complete control)): 0
- B. signalgrass plant response rating (surinam grass; [6]): 0
- Plant response rating (0 to 10; 0 is no effect, 10 is complete control), B. signalgrass (surinam grass; Rate 250 g/ha, Postemergence): 0
- B. signalgrass plant response rating (surinam grass; [7]): 0
- Corn plant response rating (corn; [1]): 0
- Corn plant response rating (corn; [2]): 0
- Plant response rating, Corn (corn; [3]): 0
- Corn plant response rating (corn; [4]): 0
- Corn plant response rating (corn; [5]): 0
- Corn plant response rating (corn; [6]): 0
- Plant response rating (0 to 10; 0 is no effect, 10 is complete control), Corn (corn; Rate 250 g/ha, Postemergence): 0
- Corn plant response rating (corn; [7]): 0
- Crabgrass plant response rating (crabgrass; [1]): 0
- Crabgrass plant response rating (crabgrass; [2]): 0
- Plant response rating, Crabgrass (crabgrass; [3]): 0
- Crabgrass plant response rating (crabgrass; [4]): 0
- Crabgrass plant response rating (crabgrass; [5]): 0
- Crabgrass plant response rating (crabgrass; [6]): 0
- Plant response rating (0 to 10; 0 is no effect, 10 is complete control), Crabgrass (crabgrass; Rate 250 g/ha, Postemergence): 0
- Crabgrass plant response rating (crabgrass; [7]): 0
- Giant foxtail plant response rating (giant foxtail; [1]): 0
- Giant foxtail plant response rating (giant foxtail; [2]): 0
- Plant response rating, Giant foxtail (giant foxtail; [3]): 0
- Giant foxtail plant response rating (giant foxtail; [4]): 0
- Giant foxtail plant response rating (giant foxtail; [5]): 0
- Giant foxtail plant response rating (giant foxtail; [6]): 0
- Plant response rating (0 to 10; 0 is no effect, 10 is complete control), Giant foxtail (giant foxtail; Rate 250 g/ha, Postemergence): 0
- Giant foxtail plant response rating (giant foxtail; [7]): 0
- Morningglory plant response rating (morningglory; [1]): 0
- Morningglory plant response rating (morningglory; [2]): 0
- Plant response rating, Morningglory (morningglory; [3]): 0
- Morningglory plant response rating (morningglory; [4]): 0
- Morningglory plant response rating (morningglory; [5]): 0
- Morningglory plant response rating (morningglory; [6]): 0
- Plant response rating (0 to 10; 0 is no effect, 10 is complete control), Morningglory (morningglory; Rate 250 g/ha, Postemergence): 1
- Morningglory plant response rating (morningglory; [7]): 2
- Redroot pigweed plant response rating (pigweed; [1]): 0
- Redroot pigweed plant response rating (pigweed; [2]): 0
- Plant response rating, Redroot pigweed (pigweed; [3]): 0
- Redroot pigweed plant response rating (pigweed; [4]): 0
- Redroot pigweed plant response rating (pigweed; [5]): 0
- Redroot pigweed plant response rating (pigweed; [6]): 0
- Plant response rating (0 to 10; 0 is no effect, 10 is complete control), Redroot pigweed (pigweed; Rate 250 g/ha, Postemergence): 0
- Redroot pigweed plant response rating (pigweed; [7]): 0
- Rape plant response rating (rape; [1]): 0
- Rape plant response rating (rape; [2]): 0
- Plant response rating, Rape (rape; [3]): 0
- Rape plant response rating (rape; [4]): 0
- Rape plant response rating (rape; [5]): 0
- Rape plant response rating (rape; [6]): 0
- Plant response rating (0 to 10; 0 is no effect, 10 is complete control), Rape (rape; Rate 250 g/ha, Postemergence): 0
- Rape plant response rating (rape; [7]): 0
- Soybean plant response rating (soybean; [1]): 0
- Soybean plant response rating (soybean; [2]): 0
- Plant response rating, Soybean (soybean; [3]): 0
- Soybean plant response rating (soybean; [4]): 0
- Soybean plant response rating (soybean; [5]): 0
- Soybean plant response rating (soybean; [6]): 0
- Plant response rating (0 to 10; 0 is no effect, 10 is complete control), Soybean (soybean; Rate 250 g/ha, Postemergence): 0
- Soybean plant response rating (soybean; [7]): 1
- Velvetleaf plant response rating (velvetleaf; [1]): 0
- Velvetleaf plant response rating (velvetleaf; [2]): 0
- Plant response rating, Velvetleaf (velvetleaf; [3]): 0
- Velvetleaf plant response rating (velvetleaf; [4]): 0
- Velvetleaf plant response rating (velvetleaf; [5]): 0
- Velvetleaf plant response rating (velvetleaf; [6]): 0
- Plant response rating (0 to 10; 0 is no effect, 10 is complete control), Velvetleaf (velvetleaf; Rate 250 g/ha, Postemergence): 0
- Velvetleaf plant response rating (velvetleaf; [7]): 0
- Wheat plant response rating (wheat; [1]): 0
- Wheat plant response rating (wheat; [2]): 0
- Plant response rating, Wheat (wheat; [3]): 0
- Wheat plant response rating (wheat; [4]): 0
- Wheat plant response rating (wheat; [5]): 0
- Wheat plant response rating (wheat; [6]): 0
- Plant response rating (0 to 10; 0 is no effect, 10 is complete control), Wheat (wheat; Rate 250 g/ha, Postemergence): 0
- Wheat plant response rating (wheat; [7]): 0
- Wild oats plant response rating (wild oat; [1]): 0
- Wild oats plant response rating (wild oat; [2]): 0
- Plant response rating, Wild oats (wild oat; [3]): 0
- Wild oats plant response rating (wild oat; [4]): 0
- Wild oats plant response rating (wild oat; [5]): 0
- Wild oats plant response rating (wild oat; [6]): 0
- Plant response rating (0 to 10; 0 is no effect, 10 is complete control), Wild oats (wild oat; Rate 250 g/ha, Postemergence): 0
- Wild oats plant response rating (wild oat; [7]): 0
- Plant response rating, Nutsedge (purple nutsedge; [3]): 0
- Nutsedge plant response rating (purple nutsedge; [4]): 0
- Nutsedge plant response rating (purple nutsedge; [5]): 0
- Plant response rating (0 to 10; 0 is no effect, 10 is complete control), Nutsedge (purple nutsedge; Rate 250 g/ha, Postemergence): 0
- Nutsedge plant response rating (purple nutsedge; [7]): 0
- Rice plant response rating (rice; [8]): 0
- Rice plant response rating (rice; [9]): 0
- Rice plant response rating (rice; [10]): 0
- Rice plant response rating (rice; [11]): 0
- Ducksalad plant response rating (duck salad; [8]): 0
- Ducksalad plant response rating (duck salad; [9]): 0
- Ducksalad plant response rating (duck salad; [10]): 0
- Ducksalad plant response rating (duck salad; [11]): 0
